Data set [1] concerns Rattus norvegicus. Briefly: Toxicity in healthy albino rat assessed as induction of changes in autonomic or behavioural responses up to 500 mg/kg, po. Format: organism-based. The settings on record: in vivo.
For data set [2], the system named is Rattus norvegicus. Briefly: Anti-inflammatory activity in rat model of acute inflammation assessed as inhibition of carrageenan-induced paw oedema dosed at equimolar oral dose relative to 10 mg/kg, po indomethacin dosed 1 hr before carrageenan injection and measured 5 hrs after carrageenan injection. It counts as functional. Background: Carrageenan injected into the paw causes an acute inflammation.

In data set [3] the test system is Rattus norvegicus. Briefly: Toxicity in healthy albino rat assessed as induction of salivation up to 500 mg/kg, po. The settings on record: in vivo. Format: organism-based.
In data set [4] the test system is Rattus norvegicus. Description: Anti-inflammatory activity in rat model of acute inflammation assessed as inhibition of carrageenan-induced paw oedema dosed at equimolar oral dose relative to 10 mg/kg, po indomethacin dosed 1 hr before carrageenan injection and measured 4 hrs after carrageenan injection. It counts as functional.
Data set [5] deals with Rattus norvegicus. Description: Renal toxicity in rat Freund's adjuvant induced arthritis model of chronic inflammation assessed as histological changes at equimolar oral dose relative to 10 mg/kg, po indomethacin dosed after 14 days from day of adjuvant injection until day 21 and measured on day 21 by hematoxylin and eosin staining based microscopy. Format: organism-based. As to conditions: in vivo, 336 h.

The subject of data set [6] is Rattus norvegicus. Briefly: Gastro-intestinal toxicity in rat Freund's adjuvant induced arthritis model of chronic inflammation assessed as histological changes at equimolar oral dose relative to 10 mg/kg, po indomethacin dosed after 14 days from day of adjuvant injection until day 21 and measured on day 21 by hematoxylin and eosin staining based microscopy. As to conditions: in vivo, 336 h. It counts as organism-based.

The subject of data set [7] is Rattus norvegicus. Briefly: Hepato-toxicity in rat Freund's adjuvant induced arthritis model of chronic inflammation assessed as histological changes at equimolar oral dose relative to 10 mg/kg, po indomethacin dosed after 14 days from day of adjuvant injection until day 21 and measured on day 21 by hematoxylin and eosin staining based microscopy. The settings on record: in vivo, 336 h. Format: organism-based.

Data set [8] has as its system Rattus norvegicus. Briefly: Toxicity in healthy albino rat assessed as induction of mortality at 500 mg/kg, po measured after 14 days. It counts as organism-based. As to conditions: in vivo, 336 h.
Data set [9] relates to Rattus norvegicus. Briefly: Anti-inflammatory activity in rat Freund's adjuvant induced arthritis model of chronic inflammation assessed as inhibition of right hind paw swelling at equimolar oral dose relative to 10 mg/kg, po indomethacin dosed after 14 days from day of adjuvant injection until day 21 and measured on day 3. It counts as functional.
The target of data set [10] is T1, Prostaglandin G/H synthase 1 (Ovis aries, UniProt P05979).
T1 sequence (P05979 whole entry): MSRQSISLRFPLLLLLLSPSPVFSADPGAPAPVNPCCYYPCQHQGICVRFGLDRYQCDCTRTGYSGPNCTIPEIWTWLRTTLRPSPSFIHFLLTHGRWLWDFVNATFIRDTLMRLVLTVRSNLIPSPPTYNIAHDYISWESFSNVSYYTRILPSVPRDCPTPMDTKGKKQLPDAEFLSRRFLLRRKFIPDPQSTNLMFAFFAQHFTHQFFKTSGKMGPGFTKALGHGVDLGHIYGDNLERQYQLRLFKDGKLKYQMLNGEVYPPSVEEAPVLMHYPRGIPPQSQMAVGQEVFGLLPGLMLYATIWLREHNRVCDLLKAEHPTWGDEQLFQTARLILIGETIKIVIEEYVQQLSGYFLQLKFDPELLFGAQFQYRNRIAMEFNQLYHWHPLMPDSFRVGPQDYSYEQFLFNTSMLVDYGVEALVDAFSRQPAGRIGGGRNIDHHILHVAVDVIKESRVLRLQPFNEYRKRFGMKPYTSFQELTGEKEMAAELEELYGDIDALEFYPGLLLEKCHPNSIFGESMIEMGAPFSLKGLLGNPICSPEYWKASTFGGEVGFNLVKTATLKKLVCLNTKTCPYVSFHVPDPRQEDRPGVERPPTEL
Description: Inhibition of ovine COX1 by oxidized TMPD detection based colorimetric assay.

In data set [11] the test system is Rattus norvegicus. Briefly: Renal toxicity in rat Freund's adjuvant induced arthritis model of chronic inflammation assessed as assessed as creatinine level at equimolar oral dose relative to 10 mg/kg, po indomethacin dosed after 14 days from day of adjuvant injection until day 21 and measured on day 21 (reference value: 0.62 +/- 0.049 mg/dL). Format: organism-based. As to conditions: in vivo, 336 h.

The record followed here is ChEMBL document CHEMBL3608207, “Synthesis, characterization, evaluation and molecular dynamics studies of 5, 6-diphenyl-1,2,4-triazin-3(2H)-one derivatives bearing 5-substituted 1,3,4-oxadiazole as potential anti-inflammatory and analgesic agents” (Eur J Med Chem, 2015).

By IC50 is commonly meant the concentration needed to halve the response being measured. Read a high IC50 as a need for much substance. `O=c1nc(-c2ccccc2)c(-c2ccccc2)nn1Cc1nnc(-c2ccc(O)cc2O)o1`: the Activity result in data set [1], in data set [3], in [5], in data set [6], in data set [7] and in [8] was “Non-toxic” in each case. In data set [11], the Activity came out at 0.72 mg/dL. The “inhibition (INH)” value in [2] was found to be 59.07%; in [4], 59.74%; in data set [9], 31.26%. Besides, the IC50 in [10] was determined as 43.3 µM.
In the case of `Nc1ccc(-c2nnc(Cn3nc(-c4ccccc4)c(-c4ccccc4)nc3=O)o2)cc1`, the Activity result in [1], in [3], in data set [5], in data set [6], in data set [7] and in [8] was “Non-toxic” throughout. The Activity in data set [11] was determined as 0.86 mg/dL. The results for the “inhibition (INH)” value in [2], in data set [4] and in data set [9] were 58.83%, 56.96% and 31.14%, respectively. For the same compound, in data set [10], it took 43.4 µM to reach half-maximal inhibition (IC50).
Regarding `O=c1nc(-c2ccccc2)c(-c2ccccc2)nn1Cc1nnc(-c2ccc([N+](=O)[O-])cc2)o1`, the Activity result was “Non-toxic” in [1], “Non-toxic” in [3], “Non-toxic” in data set [8] and 0.88 mg/dL in data set [11]. For the same compound, the “inhibition (INH)” value in data set [2] came out at 55.96%; in data set [4], 54.76%; in data set [9] it was 32.01%. For the same compound, in [10], the concentration for half-maximal inhibition (IC50) is 44.8 µM.
As for `O=c1nc(-c2ccccc2)c(-c2ccccc2)nn1Cc1nnc(-c2ccc(Cl)cc2)o1`, the Activity entry in data set [1] is “Non-toxic”; in data set [3], “Non-toxic”; in [8], “Non-toxic”; in data set [11], 0.78 mg/dL. Also, the “inhibition (INH)” value in [2] is 57.64%; in data set [4], 54.99%; in data set [9], 30.02%. In [10], this compound came in with a 50% inhibitory concentration (IC50) of 44.2 µM.
Take `COc1ccc(-c2nnc(Cn3nc(-c4ccccc4)c(-c4ccccc4)nc3=O)o2)cc1`: the Activity result was “Non-toxic” in data set [1], “Non-toxic” in data set [3], “Non-toxic” in data set [8] and 0.91 mg/dL in [11]. In addition, the “inhibition (INH)” value in data set [2] is 55.25%; in data set [4], 52.67%; in data set [9], 30.02%. The IC50 in data set [10] came to 44.9 µM.
